Patent publication EP4772509A1, “KINESIN KIF18A INHIBITOR, AND APPLICATION THEREOF” (Shanghai Apeiron Therapeutics Company Limited, priority 2023, dated 2025)
“And” between values parts separate entries of the source, which are not always exact repeats. Equal values may be shown once.

What was measured:
[1] = target: T1, Human KIF18A (amino acid sequence 1-417) (Homo sapiens, UniProt Q8NI77); experiment: Enzymatic activity test (ADP-Glo, microtubule-stimulated ATPase); assay type: biochemical; conditions: 60 µg/mL microtubules, 25 µM ATP, 2.5 nM KIF18A protein, 120 min at ambient temperature, chemiluminescence; read-out: KIF18A IC50
T1 construct: purchased Viva Biotech (Shanghai) Ltd
T1 sequence (Q8NI77 1-417): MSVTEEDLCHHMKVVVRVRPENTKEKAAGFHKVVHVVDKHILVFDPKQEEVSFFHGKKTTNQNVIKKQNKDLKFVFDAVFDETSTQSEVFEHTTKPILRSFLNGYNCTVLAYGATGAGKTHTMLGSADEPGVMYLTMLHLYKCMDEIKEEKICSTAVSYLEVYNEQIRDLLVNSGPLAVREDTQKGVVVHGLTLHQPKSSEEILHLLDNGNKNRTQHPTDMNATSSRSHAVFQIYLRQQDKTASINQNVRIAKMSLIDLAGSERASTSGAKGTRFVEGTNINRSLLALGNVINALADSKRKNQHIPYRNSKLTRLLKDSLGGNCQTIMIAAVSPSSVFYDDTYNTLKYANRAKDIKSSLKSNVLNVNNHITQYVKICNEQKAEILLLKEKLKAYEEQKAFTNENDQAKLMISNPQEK
Procedure: Materials: Human KIF18A (amino acid sequence 1-417) was purchased from Viva Biotech (Shanghai) Ltd.; the ADP-Glo™ protein kinase kit was acquired from Promega, USA; tubulin was sourced from Cytoskeleton, USA; and the 384-well assay plate and Envision multifunctional microplate reader were obtained from PerkinElmer, USA.
Enzymatic Activity Test: The compound powder was dissolved in DMSO to prepare a stock solution of 10 mM. Then gradient dilution was performed for the compounds in the microplate to achieve a final concentration of 0-10 µM. Then, 2.5 µL each of tubulin, compound, ATP, and KIF18A protein were added to the microplate in sequence for reaction at ambient temperature for 120 min. The final concentrations in the enzyme reaction were 60 µg/mL for microtubules, 25 µM for ATP, and 2.5 nM for KIF18A protein. After the enzyme reaction, 10 µL of ADP-GLO reaction reagent was added to each well and incubated at room temperature for 30 min. After that, 20 µL of detection reagent was added to each well and incubated at room temperature for 30 min in the dark. Finally, chemiluminescence detection was performed using the PerkinElmer Envision.

OVCAR3 cells = experiment: Cell proliferation activity test (CyQUANT Direct); assay type: cell-based; conditions: 3 days, 0.2% DMSO, CyQUANT fluorescence
Procedure: Materials and Cells: OVCAR3 cells were purchased from Nanjing Cobioer Biosciences Co., Ltd. RPMI-1640 medium, fetal bovine serum, and the CyQUANT Direct Cell Proliferation Assay kit were purchased from Thermo Fisher Scientific, USA; 96-well cell culture plates were sourced from Corning, USA.
Cell Culture: OVCAR3 cells were cultured with RPMI-1640 medium containing 10% fetal bovine serum and incubated in a 5% CO2 incubator at 37°C. Only cells in the logarithmic growth phase could be used for the test.
OVCAR3 cells were inoculated into a 96-well cell culture plate at 90 µL per well and incubated overnight in a 5% CO2 incubator at 37°C. The compound powder was dissolved in DMSO to prepare a stock solution of 10 mM. Then gradient dilution was performed for the compounds in the microplate to achieve a final concentration of 0-10 µM. 10 µL of cell culture medium containing compounds was added to each well to make the final DMSO content 0.2%. The cell plates were incubated in a 5% CO2 incubator at 37°C for 3 days. 100 µL of CyQUANT detection reagent was added to each well, reacted at 37°C for 60 min, and fluorescence detection was performed using the PerkinElmer Envision.

Row | Compound | IC50 [1] | IC50 (OVCAR3 cells; Homo sapiens, OVCAR-3, 72 h) [nM] | IC50 (OVCAR3 cells) [nM]
1 | 2-Hydroxy-N-(8-methyl-2^1,3-dione-2^2,2^3-dihydro-2^1H-4,6-diaza-5(2,6)-pyridin-1(1,4)-piperidin-2(5,4)-indenoundecan e-9-en-2^7-yl)ethane-1-sulfonamide [Example 38] | 113 nM |  | 
2 | Cc1cc2nc(n1)N1CCC(F)(F)C(/C=C/CCC3CCN(CC3)c3cc(NS(=O)(=O)CCO)ccc3-n3cc-2nn3)C1 (racemic) [Example 86, N-((3^4,8)-1^4,1^4-difluoro-2^6-methyl-3^1H-2(2,4)-pyrimidin-1(1,3),5(1,4)-dipiperidin-3(4,1)-triazole-4(1,2)-benzoazacyclononane-8-en-44-yl)-2-hydroxyethane-1-sulfonamide] | 352 nM | 63 | 
3 | Cc1cc2nc(n1)N1CCC(F)(F)C(/C=C\CC3CCN(CC3)c3cc(NS(=O)(=O)CCO)ccc3-c3cn-2nn3)C1 (single isomer, unassigned) [Example 84A, N-((3^4Z,7Z)-1^4,1^4-difluoro-2^6-methyl-3^1H-2(2,4)-pyrimidin-1(1,3),5(1,4)-dipiperidin-3(1,4)-triazole-4(1,2)-benzocyclooct-7-en-4^4-yl)-2-hydroxyethane-1-sulfonamide] | 309 nM |  | 26
4 | Cc1cc2nc(n1)N1CCC(F)(F)C(/C=C\CC3CCN(CC3)c3cc(NS(=O)(=O)CCO)ccc3-c3cn-2nn3)C1 (single isomer, unassigned) [Example 84B, N-((3^4Z,7Z)-1^4,1^4-difluoro-2^6-methyl-3^1H-2(2,4)-pyrimidin-1(1,3),5(1,4)-dipiperidin-3(1,4)-triazole-4(1,2)-benzocyclooct-7-en-4^4-yl)-2-hydroxyethane-1-sulfonamide] | 258 nM |  | 472
5 | Cc1cc2nc(n1)N1CCC(F)(F)C(/C=C\c3ccc(cc3)-c3cc(NS(=O)(=O)CCO)ccc3C(=O)N2)C1 (stereo not shown) [Example 43, N-(2^4,2^4-difluoro-1^6-methyl-7-oxo-8-aza-1(2,4)-pyrimidin-2(1,3)-piperidin-5(1,4),6(1,2)-diphenylcyclooct-3-en-6^5-yl)-2-hydroxyethane-1-sulfonamide] |  | 2580 | 
6 | Cc1cc2nc(n1)N1CCC(F)(F)C(/C=C/CC3CC4(C3)CN(C4)c3cc(NS(=O)(=O)CCO)ccc3C(=O)N2)C1 (stereo not shown) [Example 47, N-(6^4,6^4-difluoro-5^1-methyl-3-oxo-4-aza-5(4,2)-pyrimidin-6(1,3)-piperidin-1(1,3)-azetidin-2(1,2)-benzene-10(1,3)-cyclobutyramide-7-en-2^5-yl)-2-hydroxyethane-1-sulfonamide] | 566 nM and 625 nM |  | 
7 | COc1cc2nc(n1)N1CCC(F)(F)C(CCCc3c(F)cc(cc3F)-c3cc(NS(=O)(=O)CCO)ccc3C(=O)N2)C1 (stereo not shown) [Example 59, 2-hydroxy-N-(1^4,1^4,6^3,6^5-tetrafluoro-2^6-methoxy-4-oxo-3-aza-2(2,4)-pyrimidin-1(1,3)-piperidin-5(1,2),6(1,4)-diphenylheterocyclononane-54-yl)ethane-1-sulfonamide] | 223 nM |  | 
8 | COc1cc2nc(n1)N1CCC(F)(F)C(/C=C\C3=CC=C(S3)c3cc(NS(=O)(=O)CCO)ccc3C(=O)N2)C1 (stereo not shown) [Example 60, N-(2^4,2^4-difluoro-1^1-methoxy-7-oxo-8-aza-1(2,4)-pyrimidin-2(1,3)-piperidin-5(2,5)-thiophene-6(1,2)-benzenecyclooctane-3-en-6^5-yl)-2-hydroxyethane-1-sulfonamide] | 40 nM |  | 
9 | COc1cc2nc(n1)N1CCC(F)(F)C(CCC3=CC=C(S3)c3cc(NS(=O)(=O)CCO)ccc3C(=O)N2)C1 (stereo not shown) [Example 61, N-(2^4,2^4-difluoro-1^6-methoxy-7-oxo-8-aza-1(2,4)-pyrimidin-2(1,3)-piperidin-5(2,5)-thiophene-6(1,2)-benzeneheterocyclooctan-6^3-yl)-2-hydroxyethane-1-sulfonamide] | 60 nM |  | 
10 | Cc1cc2nc(n1)N1CCC(F)(F)C(/C=C\C3=CC=C(S3)c3cc(NS(=O)(=O)CCO)ccc3C(=O)N2)C1 (stereo not shown) [Example 62, N-(2^4,2^4-difluoro-1^6-methyl-7-oxo-8-aza-1(2,4)-pyrimidin-2(1,3)-piperidin-5(2,5)-thiophene-6(1,2)-benzeneheterocyclooct-3-en-6^5-yl)-2-hydroxyethane-1-sulfonamide] | 35 nM |  | 
11 | Cc1cc2nc(n1)N1CCC(F)(F)C(CCC3=CC=C(S3)c3cc(NS(=O)(=O)CCO)ccc3C(=O)N2)C1 (stereo not shown) [Example 63, N-(2^4,2^4-difluoro-1^6-methyl-7-oxo-8-aza-1(2,4)-pyrimidin-2(1,3)-piperidin-5(2,5)-thiophene-6(1,2)-benzeneheterocyclooctan-6^5-yl)-2-hydroxyethane-1-sulfonamide] | 126 nM |  | 
12 | COc1cc2nc(n1)N1CCC(F)(F)C(/C=C\CC3=CC=C(S3)c3cc(NS(=O)(=O)CCO)ccc3C(=O)N2)C1 (stereo not shown) [Example 64, N-(1^4,1^4-difluoro-2^6-methoxy-4-oxo-3-aza-2(2,4)-pyrimidin-1(1,3)-piperidin-6(2,5)-thiophene-5(1,2)-benzoazacyclon-8-en-5^4-yl)-2-hydroxyethane-1-sulfonamide] | 97 nM |  | 
13 | COc1cc2nc(n1)N1CCC(F)(F)C(CCCC3=CC=C(S3)c3cc(NS(=O)(=O)CCO)ccc3C(=O)N2)C1 (stereo not shown) [Example 65, N-(1^4,1^4-difluoro-2^6-methoxy-4-oxo-3-aza-2(2,4)-pyrimidin-1(1,3)-piperidin-6(2,5)-thiophene-5(1,2)-benzoazacyclononane-5^4-yl)-2-hydroxyethane-1-sulfonamide] | 135 nM |  | 
14 | Cc1cc2nc(n1)N1CCC(F)(F)C(C=CCc3csc(c3)-c3cc(NS(=O)(=O)CCO)ccc3C(=O)N2)C1 (stereo not shown) [Example 66, N-(1^4,1^4-difluoro-2^6-methyl-4-oxo-3-aza-2(2,4)-pyrimidin-1(1,3)-piperidin-6(2,4)-thiophene-5(1,2)-benzoazacyclon-8-en-5^4-yl)-2-hydroxyethane-1-sulfonamide] | 43 nM |  | 
15 | Cc1cc2nc(n1)N1CCC(F)(F)C(CCCc3csc(c3)-c3cc(NS(=O)(=O)CCO)ccc3C(=O)N2)C1 (stereo not shown) [Example 68, N-(1^4,1^4-difluoro-2^6-methyl-4-oxo-3-aza-2(2,4)-pyrimidin-1(1,3)-piperidin-6(2,4)-thiophene-5(1,2)-benzoazacyclononane-5^4-yl)-2-hydroxyethane-1-sulfonamide] | 155 nM |  | 
16 | Cc1cc2nc(n1)N1CCC(F)(F)C(CCc3csc(c3)-c3cc(NS(=O)(=O)CCO)ccc3C(=O)N2)C1 (stereo not shown) [Example 69, N-(2^4,2^4-difluoro-1^6-methyl-7-oxo-8-aza-1(2,4)-pyrimidin-2(1,3)-piperidin-5(2,4)-thiophene-6(1,2)-benzeneheterocyclooctan-6^5-yl)-2-hydroxyethane-1-sulfonamide] | 45 nM |  | 
17 | Cc1cc2nc(n1)NCC(C)C=CC1=CC=C(S1)c1cc(NS(=O)(=O)CCO)ccc1C(=O)N2 (stereo not shown) [Example 70, N-(5^6,8-dimethyl-3-oxo-4,6-diaza-5(4,2)-pyrimidin-1(2,5)-thiophene-2(1,2)-benzenecyclodec-9-en-25-yl)-2-hydroxyeth ane-1-sulfonamide] | 251 nM |  | 
18 | Cc1cc2nc(n1)N1CCC(F)(F)C(C=CCC3CCN(CC3)c3cc(NS(=O)(=O)CCO)ccc3-n3cc-2nn3)C1 (stereo not shown) [Example 81, N-((3^4,7)-1^4,1^4-difluoro-2^6-methyl-3^1H-2(2,4)-pyrimidin-1(1,3),5(1,4)-dipiperidin-3(4,1)-triazole-4(1,2)-benzocyclooct-7-en-44-yl)-2-hydroxyethane-1-sulfonamide] |  | 34 | 
19 | Cc1cc2nc(n1)N1CCC(F)=C(/C=C/CC3CCN(CC3)c3cc(NS(=O)(=O)CCO)ccc3-n3cc-2nn3)C1 [Example 83, N-((3^4Z,7E)-1^4-fluoro-2^6-methyl-1^1,1^2,1^3,16-tetrahydro-3^1H-2(2,4)-pyrimidin-1(1,5)-pyridin-5(1,4)-piperidin-3(4,1)-triazole-4(1,2)-benzylcyclooct-7-en-4^4-yl)-2-hydroxyethane-1-sulfonamide] |  | 100 | 
